We go through six compounds from US20020065227A1, “Charged compounds comprising a nucleic acid binding moiety and uses therefor” (priority 2000, published 2002).

One assay has as its system ATTACT. Briefly: DNase I footprint titration, ATTACT site. The assay is classed as binding. The following applies: equilibrium association constant Ka; pH 7.0, 22° C.
Assay [1] relates to dsDNA restriction fragment. Put plainly: dsDNA binding, DNase I footprinting on restriction fragment. As to conditions: in words.
The test system of a further assay is AATACT. Briefly: DNase I footprint titration, AATACT site. The following applies: equilibrium association constant Ka; pH 7.0, 22° C. In kind it is binding.
The test system of another assay is AGTACT. Briefly: DNase I footprint titration, AGTACT site. As to conditions: equilibrium association constant Ka; pH 7.0, 22° C. In kind it is binding.
A further assay concerns ACTACT. Briefly: DNase I footprint titration, ACTACT site. The assay is classed as binding. The following applies: equilibrium association constant Ka; pH 7.0, 22° C.
Assay [2] has as its system Peptostreptococcus asaccharolytics (29743). Briefly: MIC, NCCLS broth microdilution. In kind it is cell-based. As to conditions: anaerobe. (In general: Dilution methods test growth across graded concentrations, often in twofold steps.)
A further assay deals with Esherichia coli (25922). Briefly: MIC, NCCLS broth microdilution. The assay is classed as cell-based, Escherichia coli.
The subject of the next assay is Bacillus subtilis (6633). Briefly: MIC, NCCLS broth microdilution. The assay is classed as cell-based.
Assay [3] deals with Clostridium perfringens (13124). Briefly: microbe, parasite or virus in culture. In kind it is cell-based.
In assay [4] the test system is Enterococcus faecium (51559) (vacomycin resistant). Briefly: MIC, NCCLS broth microdilution. In kind it is cell-based.
Assay [5] concerns Pseudomona aeruginosa (27853). Put plainly: MIC, NCCLS broth microdilution. In kind it is cell-based.
The subject of assay [6] is Corynebacterium Group A (49676). Briefly: MIC, NCCLS broth microdilution. In kind it is cell-based.
Assay [7] deals with Propionibacterium acnes (33179). Put plainly: MIC, NCCLS broth microdilution. In kind it is cell-based. As to conditions: anaerobe.
Another assay relates to Bacillus cereus (11778). Put plainly: MIC, NCCLS broth microdilution. In kind it is cell-based.
The test system of assay [8] is Staphylococcus aureus (29213). Briefly: MIC, NCCLS broth microdilution. In kind it is cell-based.
Assay [9] relates to Listeria monocytogenes (19115). Put plainly: MIC, NCCLS broth microdilution. In kind it is cell-based. The following applies: read-out: MIC.
The subject of assay [10] is Haemophilus influenzae (49247). Put plainly: MIC, NCCLS broth microdilution. The assay is classed as cell-based.
The test system of assay [11] is Staphylococcus aureus (33591) (methicillin resistant). Briefly: MIC, NCCLS broth microdilution. The assay is classed as cell-based.
Assay [12] deals with Enterococcus faecalis (29212). Put plainly: MIC, NCCLS broth microdilution. The assay is classed as cell-based.
For assay [13], the system named is Staphylococcus epidermidis (12228). Put plainly: MIC, NCCLS broth microdilution. In kind it is cell-based.
The next assay relates to Micrococcus luteus (381). Put plainly: MIC, NCCLS broth microdilution. In kind it is cell-based.
The test system of assay [14] is Streptococcus pyogenes (49339). Briefly: MIC, NCCLS broth microdilution. The assay is classed as cell-based.
In assay [15] the test system is Streptococcus pneumoniae (49619). Briefly: MIC, NCCLS broth microdilution. The assay is classed as cell-based.
For assay [16], the system named is Cryptococcus neoformans (90112). Briefly: MIC, antifungal assay. The assay is classed as cell-based.
The subject of assay [17] is Candida tropicalis (13803). Put plainly: MIC, antifungal assay. In kind it is cell-based.
For assay [18], the system named is Candida parapsilosis (10232). Put plainly: MIC, antifungal assay. The assay is classed as cell-based.
Assay [19] concerns different species of bacteria and fungi. The following applies: in words.
Assay [20] has as its system Candida albicans (38247) (Polyene resistant). Put plainly: MIC, antifungal assay. The assay is classed as cell-based.
The test system of another assay is Candida albicans (90028). Briefly: MIC, antifungal assay. The assay is classed as cell-based.
Setting [21] is: Cryptococcus neoformans (90112).
Setting [22] is: Streptococcus pneumoniae (49619).

Converted amounts (≈) assume the structure as drawn. Where two headings read alike, the source gives them in different places.

For the compound `CN(C)CCCNC(=O)CCNC(=O)c1cc(NC(=O)c2cc(NC(=O)c3cc(NC(=O)c4nc(NC(=O)CCCNC(=O)c5cc(NC(=O)c6cc(NC(=O)c7nsc(Cl)c7Cl)cn6C)cn5C)cn4C)cn3C)cn2C)cn1C` [VI-c], the “Binding Constant, sequence ATTACT” value with ATTACT turned out to be 1e+10 M⁻¹. For the same compound, in assay [1], the “Sequence preference of binding” value is “bind ATTACT, and AATACT preferentially to ACTACT and AGTACT”. Moreover, the “Binding Constant, sequence AATACT” value with AATACT came to 1e+09 M⁻¹. Further, the “Binding Constant, sequence AGTACT” value with AGTACT is 2e+08 M⁻¹. For the same compound, in the assay with ACTACT, the “Binding Constant, sequence ACTACT” value was found to be 1e+08 M⁻¹.

For `CC1COc2c(N3CCN(C)CC3)c(F)cc3c(=O)c(C(=O)O)cn1c23` (stereo not drawn) [Ofloxacin, ofloxacin, reference compound], the MIC in [2] (read-out: MIC) was 0.5 µg/mL (≈ 1.38 µM); in the assay with Esherichia coli (25922) (Escherichia coli (25922), read-out: MIC), 0.03 µg/mL (≈ 0.083 µM); with Bacillus subtilis (6633) (Bacillus subtilis), 0.125 µg/mL (≈ 0.346 µM); in assay [3] (Clostridium perfringens), 0.25 µg/mL (≈ 0.692 µM); in assay [4] (Enterococcus faecium (51559), vancomycin resistant, read-out: MIC), 8 µg/mL (≈ 22.1 µM); in assay [5], above 128 µg/mL. Further, the MIC in assay [6] (Corynebacterium) is 0.125 µg/mL (≈ 0.346 µM); in assay [7] (Cutibacterium acnes, read-out: MIC) it was 0.25 µg/mL (≈ 0.692 µM); with Bacillus cereus (11778) (Bacillus cereus), 0.125 µg/mL (≈ 0.346 µM); in assay [8] (Staphylococcus aureus), 0.125 µg/mL (≈ 0.346 µM); in assay [9] it was 1 µg/mL (≈ 2.77 µM); in assay [10] (Haemophilus influenzae (49247), read-out: MIC), 0.25 µg/mL (≈ 0.692 µM). The MIC was 0.25 µg/mL (≈ 0.692 µM) in [11] (Staphylococcus aureus (33591), methicillin resistant (MRSA), read-out: MIC); 8 µg/mL (≈ 22.1 µM) in [12] (Enterococcus faecalis (29212), read-out: MIC); 0.25 µg/mL (≈ 0.692 µM) in assay [13] (Staphylococcus epidermidis (12228), read-out: MIC); 1 µg/mL (≈ 2.77 µM) in the assay with Micrococcus luteus (381) (read-out: MIC); 1 µg/mL (≈ 2.77 µM) in [14] (Streptococcus pyogenes (49339), Table Ia: Streptococcus Group A(49339), read-out: MIC); 1 to 2 µg/mL (≈ 2.77 to 5.53 µM) in assay [15] (Streptococcus pneumoniae (49619), read-out: MIC).

Turning to `Cn1cc(NC(=O)c2cc(NC(=O)CN=C(N)N)cn2C)cc1C(=O)NCCC(=N)N` [Netropsin, netropsin, reference compound], the MIC in assay [16] (Cryptococcus neoformans) is 4 µg/mL (≈ 9.29 µM); in the assay with Esherichia coli (25922) (Escherichia coli) it was 2 µg/mL (≈ 4.65 µM); in the assay with Bacillus subtilis (6633) (Bacillus subtilis) it was 4 µg/mL (≈ 9.29 µM); in [4] (Enterococcus faecium), 8 µg/mL (≈ 18.6 µM); in assay [5] it was above 128 µg/mL; in assay [6] (Corynebacterium), 0.5 µg/mL (≈ 1.16 µM). In addition, the MIC against Bacillus cereus (11778) (Bacillus cereus) was 2 µg/mL (≈ 4.65 µM); in assay [8] (Staphylococcus aureus), 4 µg/mL (≈ 9.29 µM); in assay [10] (Haemophilus influenzae), 4 µg/mL (≈ 9.29 µM); in assay [11] (Staphylococcus aureus, MRSA), 4 µg/mL (≈ 9.29 µM); in [12] (Enterococcus faecalis), 2 µg/mL (≈ 4.65 µM); in [13] (Staphylococcus epidermidis), 2 to 4 µg/mL (≈ 4.65 to 9.29 µM). The MIC worked out at 8 µg/mL (≈ 18.6 µM) in assay [14] (Streptococcus pyogenes), 16 µg/mL (≈ 37.2 µM) in assay [17] (Candida tropicalis), 16 µg/mL (≈ 37.2 µM) in [18] (Lodderomyces parapsilosis) and 0.125 µg/mL (≈ 0.29 µM) in assay [15] (Streptococcus pneumoniae).

Turning to `CN(C)CCCNC(=O)CCNC(=O)c1cc(NC(=O)c2cc(NC(=O)c3nsc(Cl)c3Cl)cn2C)cn1C` [V-cc], in [1], the dsDNA binding result is given as “good binder for dsDNA”. Further, in assay [19], the Anti-pathogenic properties entry is listed as “significant anti-pathogenic properties”.

With `Cn1cc(NC(=O)c2cc(NC(=O)c3cc(NC=O)cn3C)cn2C)cc1C(=O)NCCC(=N)N` [Distamycin, distamycin, reference compound], the MIC was 8 µg/mL (≈ 16.6 µM) in assay [2]; above 128 µg/mL in [16] (setting [21]); above 128 µg/mL against Esherichia coli (25922) (Escherichia coli (25922)); 64 to 128 µg/mL in the assay with Bacillus subtilis (6633) (Bacillus subtilis (6633)); 8 µg/mL (≈ 16.6 µM) in assay [3]; 128 µg/mL (≈ 266 µM) in assay [4] (Enterococcus faecium (51559), vancomycin resistant). Further, the MIC in [5] (Pseudomona aeruginosa (27853)) is above 128 µg/mL; in assay [6] (Corynebacterium Group A (49676)), 16 µg/mL (≈ 33.2 µM); in [7], 16 µg/mL (≈ 33.2 µM); with Bacillus cereus (11778) (Bacillus cereus (11778)) it was 8 µg/mL (≈ 16.6 µM); in [8] (Staphylococcus aureus (29213)), 32 µg/mL (≈ 66.5 µM); in [20], above 128 µg/mL. Moreover, the MIC in assay [11] (Staphylococcus aureus (33591), methicillin resistant (MRSA)) was 16 µg/mL (≈ 33.2 µM); in [12] (Enterococcus faecalis (29212)), 16 to 32 µg/mL; in assay [13] (Staphylococcus epidermidis (12228)) it was 64 µg/mL (≈ 133 µM); against Micrococcus luteus (381), 32 µg/mL (≈ 66.5 µM); in [14] (Streptococcus pyogenes (49339), Table Ia: Streptococcus Group A(49339)), 32 µg/mL (≈ 66.5 µM); in assay [17] (Candida tropicalis (13803)) it was above 128 µg/mL. The MIC in [18] (Candida parapsilosis (10232)) was above 128 µg/mL; in assay [15] (setting [22]), 16 µg/mL (≈ 33.2 µM); with Candida albicans (90028), above 128 µg/mL.

In the case of `CCN(CC)CCNC(=O)CCNC(=O)c1cc(NC(=O)c2cc(NC(=O)c3nsc(NCCN(CC)CC)c3Cl)cn2C)cn1C` [V-r], the MIC in [16] (setting [21]) was 16 µg/mL (≈ 23.1 µM); in the assay with Esherichia coli (25922) (Escherichia coli (25922)), above 128 µg/mL; against Bacillus cereus (11778) (Bacillus cereus (11778)) it was above 128 µg/mL; in assay [8] (Staphylococcus aureus (29213)), above 128 µg/mL; in [10] (Haemophilus influenzae (49247)) it was above 128 µg/mL; in assay [20], above 128 µg/mL. Also, the MIC in [12] (Enterococcus faecalis (29212)) was 16 µg/mL (≈ 23.1 µM); in [18] (Candida parapsilosis (10232)) it was 2 µg/mL (≈ 2.89 µM); in assay [15] (setting [22]), 16 µg/mL (≈ 23.1 µM); in the assay on Candida albicans (90028) it was above 128 µg/mL.
